Laboratory results: patent publication US20200008395A1, “METHOD OF USING HUMAN EXCREMENT AND SECRETIONS FOR EARLY DETECTION OF PARKINSON'S DISEASE” (NEURRX, SPC, priority 2017, published 2020)

What was measured:
[1] = supplements / pharmaceuticals said to have been shown to slow or reduce progression; cited from earlier work
[2] = Regression model of nutritional supplements and PD progression (PRO-PD score); type: in vivo, human; conditions: positive report of consistently using supplement over the previous 6 months, adjusted for years since diagnosis; for Mean change in PRO-PD score (SE)*: age, and gender; for Mean change in PRO-PD score (SE)**: age, gender, and income
Source text: When the diagnosis comes 10-15 years or more into the disease, the contribution or effectiveness of a disease-modifying therapy is diminished. Conversely, early detection and intervention by disease-modifying therapies can reduce rate of PD progression or delay disease onset. […] As used herein, PRO-PD is the Patient Reported Outcomes in Parkinson's Disease rating scale, which is used to describe PD disease severity among individuals with a clinical diagnosis of PD.
Certain foods and supplements are known to be associated with different rates of PD progression.

| Compound | Effect on PD progression (statement in words) [1] | Mean change in PRO-PD score (SE)* [2] | Mean change in PRO-PD score (SE)** [2] |
| --- | --- | --- | --- |
| C#CCN[C@@H]1CCc2ccccc21 [rasagiline] | reduce the rate of progression | – | – |
| C[C@]12CC[C@H](O)CC1=CC[C@@H]1[C@@H]2CC[C@]2(C)C(=O)CC[C@@H]12 [DHEA, dehydroepiandrosterone] | slow the progression of PD | – | – |
| C#CCN(C)[C@H](C)Cc1ccccc1 [selegeline] | reduce the rate of progression | – | – |
| N[C@@H](CCC(=O)N[C@@H](CS)C(=O)NCC(=O)O)C(=O)O [Glutathione, oral, glutathione] | slow the progression of PD | – | – |
| Vitamin D | – | −26.1 | −3.6 |
| N[C@@H](Cc1ccc(O)c(O)c1)C(=O)O [levodopa] | reduce the rate of progression | – | – |
| O=C1CC[C@@]2(O)[C@H]3Cc4ccc(O)c5c4[C@@]2(CCN3CC2CC2)[C@H]1O5 [Low-dose naltrexone, naltrexone] | reduce the rate of progression | – | – |
| NC(=O)C1=CN([C@@H]2O[C@H](COP(=O)(O)OP(=O)(O)OC[C@H]3O[C@@H](n4cnc5c(N)ncnc54)[C@H](O)[C@@H]3O)[C@@H](O)[C@H]2O)C=CC1 [NADH] | – | −9.7 | −25.2 |
| CN1c2c(nc(N)[nH]c2=O)NCC1CNc1ccc(C(=O)N[C@@H](CCC(=O)O)C(=O)O)cc1 (stereo partly drawn) [5-Methyltetrahydrofolate (5-MTHF), 5-Methyltetrahydrofolate] | – | −17.1 | −25.1 |
| COC1=C(OC)C(=O)C(C/C=C(\C)CC/C=C(\C)CC/C=C(\C)CC/C=C(\C)CC/C=C(\C)CC/C=C(\C)CC/C=C(\C)CC/C=C(\C)CC/C=C(\C)CCC=C(C)C)=C(C)C1=O [CoQ10, coenzyme Q-10] | slow the progression of PD | – | – |
| [Ca+2] [Calcium] | – | −6.2 | 12.5 |
